From DBAASP
In brackets after ≈: the same amount, converted by molar mass.

Experiments:
Assay in all cases: ≥ marks a high value that may be exact or a test limit, other limits are often not marked, values filed in µg/mL are converted to µM
[1] = test system: Escherichia coli PCM 2057
[2] = test system: Staphylococcus aureus PCM 1944
[3] = test system: Staphylococcus saprophyticus
Alcaligenes faecalis = test system: Alcaligenes faecalis
Escherichia coli D22 = test system: Escherichia coli D22
Serratia marcescens Db11 = test system: Serratia marcescens Db11
Bacillus subtilis QB935 = test system: Bacillus subtilis QB935
Klebsiella pneumoniae = test system: Klebsiella pneumoniae
Bacillus thuringiensis = test system: Bacillus thuringiensis
Staphylococcus aureus = test system: Staphylococcus aureus
Micrococcus luteus A270 = test system: Micrococcus luteus A270
Bacillus megaterium = test system: Bacillus megaterium
Listeria monocytogenes = test system: Listeria monocytogenes
Aerococcus viridans = test system: Aerococcus viridans
[4] = test system: Enterobacter cloacae beta-12
[5] = test system: Pseudomonas aeruginosa ATCC 82118
Pediococcus acidilactici = test system: Pediococcus acidilactici
Salmonella typhimurium = test system: Salmonella typhimurium
[6] = test system: Staphylococcus aureus BCRC 10780
[7] = test system: Enterobacter cloacae BCRC 10401
Lactococcus garvieae = test system: Lactococcus garvieae
Vibrio harveyi = test system: Vibrio harveyi
[8] = test system: Vibrio alginolyticus BCRC 12829
[9] = test system: Klebsiella oxytoca BCRC 13985
[10] = test system: Klebsiella aerogenes BCRC 10370
Vibrio alginolyticus = test system: Vibrio alginolyticus
Streptococcus iniae = test system: Streptococcus iniae
[11] = test system: Vibrio anguillarum serotype O1
[12] = test system: Staphylococcus xylosus BCRC 12930
[13] = test system: Streptococcus equinus BCRC 14729
[14] = test system: Staphylococcus aureus BCRC 10781
[15] = test system: Escherichia coli BCRC 10675
[16] = test system: Listeria monocytogenes BCRC 14845
[17] = test system: Pseudomonas aeruginosa BCRC 10944
[18] = test system: Yersinia enterocolitica BCRC 13999
Vibrio parahaemolyticus = test system: Vibrio parahaemolyticus
[19] = test system: Vibrio parahaemolyticus BCRC 10806
[20] = test system: Batrachochytrium dendrobatidis
[21] = test system: Pseudomonas aeruginosa ATCC 9027
[22] = test system: Shigella flexneri ATCC 203
[23] = test system: Escherichia coli ATCC 2592
[24] = test system: Staphylococcus epidermidis ATCC 12228
[25] = test system: Micrococcus luteus ATCC 9341
[26] = test system: Corynebacterium diphtheriae ATCC 8024
[27] = test system: Staphylococcus aureus ATCC 6538
[28] = test system: Bacillus subtilis ATCC 6633
[29] = test system: Candida albicans ATCC 36232

In the case of `CC[C@H](C)[C@@H]1NC(=O)[C@H](CO)NC(=O)[C@H](CCCCN)NC(=O)[C@@H](NC(=O)[C@H](CCCN=C(N)N)NC(=O)[C@H](Cc2ccccc2)NC(=O)[C@H](Cc2cnc[nH]2)NC(=O)[C@@H](NC(=O)[C@H](CCCCN)NC(=O)[C@H](Cc2ccccc2)NC(=O)[C@@H]2CCCN2C(=O)[C@@H](NC(=O)[C@H](CC(N)=O)NC(=O)[C@H](C)NC(=O)[C@H](C)N)[C@@H](C)CC)C(C)C)CSSC[C@@H](C(=O)O)NC(=O)[C@H](Cc2ccccc2)NC1=O` [AANIPFKVHFRCKSIFC], the MIC [1] is reported as at least 505 µM and the MIC [2] is reported as at least 505 µM.
Molecule `CC[C@H](C)[C@@H]1NC(=O)[C@H](CC(=O)O)NC(=O)[C@@H](NC(=O)[C@@H](NC(=O)[C@H](C)N)[C@@H](C)O)CSSC[C@@H]2NC(=O)[C@H](CCC(N)=O)NC(=O)CNC(=O)CNC(=O)[C@H](CCCCN)NC(=O)[C@H](Cc3ccc(O)cc3)NC(=O)CNC(=O)[C@H](CCCCN)NC(=O)[C@H]([C@@H](C)CC)NC(=O)[C@H](C(C)C)NC(=O)[C@@H]3CSSC[C@@H](C(=O)N[C@@H](CCCN=C(N)N)C(=O)N[C@@H](CCCN=C(N)N)C(=O)O)NC(=O)[C@H](Cc4cnc[nH]4)NC(=O)[C@H](CSSC[C@H](NC(=O)CNC(=O)[C@H](C)NC(=O)[C@H](Cc4cnc[nH]4)NC(=O)[C@H](CC(N)=O)NC(=O)[C@@H]4CCCN4C(=O)[C@H]([C@@H](C)O)NC(=O)[C@H](C(C)C)NC(=O)[C@H](Cc4c[nH]c5ccccc45)NC(=O)[C@H](CCC(N)=O)NC(=O)[C@H](CO)NC(=O)[C@H](CCC(N)=O)NC(=O)[C@H](Cc4ccccc4)NC(=O)[C@H](CO)NC(=O)[C@H](CC(C)C)NC1=O)C(=O)N[C@@H](C)C(=O)N[C@@H](CC(C)C)C(=O)N[C@@H](Cc1cnc[nH]1)C(=O)N3)NC(=O)[C@H](C(C)C)NC(=O)[C@H]([C@@H](C)O)NC(=O)[C@H]([C@@H](C)CC)NC(=O)[C@H](CCCCN)NC2=O` [ATCDILSFQSQWVTPNHAGCALHCVIKGYKGGQCKITVCHCRR] has an MIC [3] of 1.77 µM (≈ 8.36 µg/mL), an MIC (Alcaligenes faecalis) of 5 µM (≈ 23.6 µg/mL) and an MIC (Escherichia coli D22) of 3.54 µM (≈ 16.7 µg/mL). The MIC (Serratia marcescens Db11) was 5 µM (≈ 23.6 µg/mL), the MIC (Bacillus subtilis QB935) was 3.54 µM (≈ 16.7 µg/mL) and the MIC (Klebsiella pneumoniae) was over 5 µM. The MIC (Bacillus thuringiensis) was 5 µM (≈ 23.6 µg/mL), the MIC (Staphylococcus aureus) was 0.88 µM (≈ 4.16 µg/mL) and the MIC (Micrococcus luteus A270) was 0.212 µM (≈ 1 µg/mL). It also gave an MIC (Bacillus megaterium) of 0.212 µM (≈ 1 µg/mL), an MIC (Listeria monocytogenes) of 5 µM (≈ 23.6 µg/mL) and an MIC (Aerococcus viridans) of 0.424 µM (≈ 2.01 µg/mL). It also gave an MIC [4] of 5 µM (≈ 23.6 µg/mL), an MIC [5] of 5 µM (≈ 23.6 µg/mL) and an MIC (Pediococcus acidilactici) of 3.54 µM (≈ 16.7 µg/mL). The MIC (Salmonella typhimurium) was 5 µM (≈ 23.6 µg/mL).
Work on `CC[C@H](C)[C@H](NC(=O)[C@H](CCCCN)NC(=O)[C@H](CCCCN)NC(=O)[C@H](C)NC(=O)[C@H](Cc1ccccc1)NC(=O)[C@@H](NC(=O)[C@H](C)NC(=O)[C@H](CC(C)C)NC(=O)[C@H](CCCCN)NC(=O)[C@H](CCCCN)NC(=O)[C@H](C)NC(=O)[C@H](C)NC(=O)[C@H](CC(N)=O)NC(=O)[C@H](C)NC(=O)CN)[C@@H](C)O)C(=O)N[C@@H](Cc1ccccc1)C(=O)N[C@H](C(=O)N[C@@H](C)C(=O)N[C@@H](Cc1ccc(O)cc1)C(=O)N[C@@H](Cc1c[nH]c2ccccc12)C(=O)O)[C@@H](C)O` [GANAAKKLATFAKKIFTAYW] yielded an MIC [6] of 29.1 µM, an MIC [7] of 7.27 µM and an MIC (Lactococcus garvieae) of at least 116 µM. The MIC (Vibrio harveyi) was 7.27 µM, the MIC [8] was at least 58.2 µM and the MIC [9] was at least 58.2 µM. For the same molecule, the MIC [10] was 14.5 µM, the MIC (Vibrio alginolyticus) was 7.27 µM and the MIC (Streptococcus iniae) was at least 58.2 µM. The MIC [11] was 7.27 µM, the MIC [12] was 29.1 µM and the MIC [13] was at least 58.2 µM. The MIC [14] was 29.1 µM, the MIC [15] was 14.5 µM and the MIC [16] was at least 58.2 µM. For the same molecule, the MIC [17] was 29.1 µM, the MIC [18] was at least 116 µM and the MIC (Vibrio parahaemolyticus) was 7.27 µM. It also gave an MIC [19] of at least 58.2 µM.
`CC[C@H](C)[C@H](NC(=O)CN)C(=O)N[C@@H](CCSC)C(=O)N[C@@H](CC(=O)O)C(=O)N[C@@H](CO)C(=O)N[C@H](C(=O)N[C@@H](CCCCN)C(=O)NCC(=O)N[C@@H](C)C(=O)N[C@@H](C)C(=O)N[C@@H](CCCCN)C(=O)N[C@@H](CCC(=O)O)C(=O)N[C@H](C(=O)N[C@@H](C)C(=O)NCC(=O)N[C@@H](Cc1cnc[nH]1)C(=O)N[C@@H](CC(C)C)C(=O)N[C@@H](CC(C)C)C(=O)N[C@@H](CC(=O)O)C(=O)N[C@@H](CC(N)=O)C(=O)N[C@@H](CC(C)C)C(=O)N[C@@H](CCCCN)C(=O)N[C@H]1CSSC[C@@H](C(=O)O)NC(=O)CNC(=O)[C@H]([C@@H](C)O)NC(=O)[C@H]([C@@H](C)CC)NC(=O)[C@H](CCCCN)NC1=O)[C@@H](C)CC)[C@@H](C)CC` [GIMDSIKGAAKEIAGHLLDNLKCKITGC] was tested, and the MIC [20] was at least 50 µM.
Work on `CC(C)[C@H](NC(=O)[C@H](CS)NC(=O)[C@@H](NC(=O)[C@H](CCCN=C(N)N)NC(=O)[C@H](CCCCN)NC(=O)CNC(=O)[C@@H](N)CC(N)=O)C(C)C)C(=O)N[C@@H](CS)C(=O)N[C@@H](CCCN=C(N)N)C(N)=O` [NGKRVCVCR] yielded an MIC [21] of over 96.7 µM, an MIC [22] of at least 96.7 µM and an MIC (Staphylococcus aureus) of over 96.7 µM. It also gave an MIC [23] of at least 96.7 µM, an MIC [24] of over 96.7 µM and an MIC [25] of at least 96.7 µM. The MIC [26] was at least 96.7 µM, the MIC [27] was over 96.7 µM and the MIC [28] was at least 96.7 µM. It also gave an MIC [29] of at least 96.7 µM.
